Test results reported in the supplement of paper PMC10307832.

How the values were obtained:
Test in all cases: relative viability (nuclei count vs DMSO), 5 days (fraction); higher = more cells survive
[1] = test system: NCI-H2126
Method in brief: (§1)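 Relative viability equals treated-well nuclei counts divided by vehicle-well nuclei counts. Counts came from 4× images of lung cancer cell lines grown in 1536-well plates for 5 days after pin-tool dosing on the day after seeding. Dosing used one drug alone or a fixed anchor-drug dose plus five library-drug doses (not always all listed) in √10 steps, and values are medians of duplicate plates.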

[2] = test system: SW 1573
Method in brief: as §1

[3] = test system: NCI-H2085
Method in brief: as §1

[4] = test system: NCI-H1993
Method in brief: as §1

[5] = test system: LC-2-ad
Method in brief: as §1

[6] = test system: LU99A
Method in brief: as §1

[7] = test system: ABC-1
Method in brief: as §1

[8] = test system: NCI-H2023
Method in brief: as §1

[9] = test system: NCI-H838
Method in brief: as §1

[10] = test system: EPLC-272H
Method in brief: as §1

[11] = test system: UMC-11
Method in brief: as §1

[12] = test system: HCC-15
Method in brief: as §1

[13] = test system: HARA
Method in brief: as §1

[14] = test system: PC-14
Method in brief: as §1

[15] = test system: COR-L23
Method in brief: as §1

[16] = test system: NCI-H1651
Method in brief: as §1

[17] = test system: NCI-H650
Method in brief: as §1

[18] = test system: NCI-H1355
Method in brief: as §1

[19] = test system: NCI-H358
Method in brief: as §1

[20] = test system: NCI-H1915
Method in brief: as §1

[21] = test system: NCI-H2347
Method in brief: as §1

[22] = test system: HCC-44
Method in brief: as §1

[23] = test system: HOP-62
Method in brief: as §1

## COc1nc(C)cnc1NS(=O)(=O)c1cccnc1-c1ccc(-c2nnco2)cc1 [Zibotentan] + N=C(N)NC(=N)NCCc1ccccc1 [Phenformin] (partner 250 µM)
[1]; first compound 0.08 µM
  relative viability: 0.534
[1]; first compound 0.8 µM
  relative viability: 0.518
[1]; first compound 2.53 µM
  relative viability: 0.575
[2]; first compound 0.08 µM
  relative viability: 0.397
[2]; first compound 0.8 µM
  relative viability: 0.359
[2]; first compound 2.53 µM
  relative viability: 0.334
[3]; first compound 0.08 µM
  relative viability: 0.73
[3]; first compound 0.253 µM
  relative viability: 0.699
[3]; first compound 0.8 µM
  relative viability: 0.803
[3]; first compound 2.53 µM
  relative viability: 0.814
[4]; first compound 0.08 µM
  relative viability: 0.461
[4]; first compound 0.253 µM
  relative viability: 0.541
[4]; first compound 0.8 µM
  relative viability: 0.46
[4]; first compound 2.53 µM
  relative viability: 0.514
[5]; first compound 0.08 µM
  relative viability: 0.564
[5]; first compound 0.8 µM
  relative viability: 0.689
[5]; first compound 2.53 µM
  relative viability: 0.619
[6]; first compound 0.08 µM
  relative viability: 0.922
[6]; first compound 0.253 µM
  relative viability: 0.853
[6]; first compound 0.8 µM
  relative viability: 0.795
[6]; first compound 2.53 µM
  relative viability: 0.897
[7]; first compound 0.08 µM
  relative viability: 0.236
[7]; first compound 0.253 µM
  relative viability: 0.235
[7]; first compound 0.8 µM
  relative viability: 0.252
[7]; first compound 2.53 µM
  relative viability: 0.227
[8]; first compound 0.08 µM
  relative viability: 0.407
[8]; first compound 0.253 µM
  relative viability: 0.321
[8]; first compound 0.8 µM
  relative viability: 0.416
[8]; first compound 2.53 µM
  relative viability: 0.451
[9]; first compound 0.08 µM
  relative viability: 0.586
[9]; first compound 0.253 µM
  relative viability: 0.586
[9]; first compound 0.8 µM
  relative viability: 0.55
[9]; first compound 2.53 µM
  relative viability: 0.567
[10]; first compound 0.08 µM
  relative viability: 0.287
[10]; first compound 0.253 µM
  relative viability: 0.296
[10]; first compound 0.8 µM
  relative viability: 0.306
[10]; first compound 2.53 µM
  relative viability: 0.306
[11]; first compound 0.08 µM
  relative viability: 0.318
[11]; first compound 0.253 µM
  relative viability: 0.291
[11]; first compound 0.8 µM
  relative viability: 0.312
[11]; first compound 2.53 µM
  relative viability: 0.346
[12]; first compound 0.08 µM
  relative viability: 0.524
[12]; first compound 0.8 µM
  relative viability: 0.493
[12]; first compound 2.53 µM
  relative viability: 0.451
[13]; first compound 0.08 µM
  relative viability: 0.462
[13]; first compound 0.253 µM
  relative viability: 0.429
[13]; first compound 0.8 µM
  relative viability: 0.217
[13]; first compound 2.53 µM
  relative viability: 0.489
[14]; first compound 0.08 µM
  relative viability: 0.692
[14]; first compound 0.253 µM
  relative viability: 0.377
[14]; first compound 0.8 µM
  relative viability: 0.66
[14]; first compound 2.53 µM
  relative viability: 0.601
[15]; first compound 0.08 µM
  relative viability: 0.445
[15]; first compound 0.253 µM
  relative viability: 0.376
[15]; first compound 0.8 µM
  relative viability: 0.506
[15]; first compound 2.53 µM
  relative viability: 0.416
[16]; first compound 0.08 µM
  relative viability: 0.38
[16]; first compound 0.253 µM
  relative viability: 0.264
[16]; first compound 0.8 µM
  relative viability: 0.294
[16]; first compound 2.53 µM
  relative viability: 0.339
[17]; first compound 0.08 µM
  relative viability: 0.445
[17]; first compound 0.253 µM
  relative viability: 0.389
[17]; first compound 0.8 µM
  relative viability: 0.508
[17]; first compound 2.53 µM
  relative viability: 0.461
[18]; first compound 0.08 µM
  relative viability: 0.465
[18]; first compound 0.253 µM
  relative viability: 0.414
[18]; first compound 0.8 µM
  relative viability: 0.449
[18]; first compound 2.53 µM
  relative viability: 0.491
[19]; first compound 0.08 µM
  relative viability: 0.288
[19]; first compound 0.253 µM
  relative viability: 0.134
[19]; first compound 0.8 µM
  relative viability: 0.328
[19]; first compound 2.53 µM
  relative viability: 0.345
[20]; first compound 0.08 µM
  relative viability: 0.399
[20]; first compound 0.253 µM
  relative viability: 0.358
[20]; first compound 0.8 µM
  relative viability: 0.377
[20]; first compound 2.53 µM
  relative viability: 0.289
[21]; first compound 0.253 µM
  relative viability: 0.434
[21]; first compound 0.8 µM
  relative viability: 0.375
[21]; first compound 2.53 µM
  relative viability: 0.444
[22]; first compound 0.08 µM
  relative viability: 0.167
[22]; first compound 0.253 µM
  relative viability: 0.201
[22]; first compound 0.8 µM
  relative viability: 0.273
[22]; first compound 2.53 µM
  relative viability: 0.158
[23]; first compound 0.08 µM
  relative viability: 0.746
[23]; first compound 0.253 µM
  relative viability: 0.664
[23]; first compound 0.8 µM
  relative viability: 0.747
[23]; first compound 2.53 µM
  relative viability: 0.715
